These results are taken from ChEMBL document CHEMBL1671621, “Efficient clearance of Aspergillus fumigatus in murine lungs by an ultrashort antimicrobial lipopeptide, palmitoyl-lys-ala-DAla-lys” (Antimicrob Agents Chemother, 2008).

Structures are written as SMILES. Values after ≈ are worked out from the molar mass of the structure shown. Active and inactive are the calls of the source. The calls are words filed in the database; no cut-off is given here. Where a SMILES comes first, the peptide text is derived from it. [ ]: non-standard residue; d: D form. The star is where a group is joined. Palmitoyl = CCCCCCCCCCCCCCCC(=O)*; Lauroyl = CCCCCCCCCCCC(=O)*

Data set [1] is described as follows: Toxicity in human RBC assessed as hemolysis at 20 uM. It is filed as cell-based, Erythrocyte. The conditions noted are these: red blood cells (RBC), read-out: Activity.
The nature of data set [2]: Toxicity in human RBC assessed as hemolysis at 50 uM. The class given is cell-based, Erythrocyte. The conditions noted are these: red blood cells (RBC), read-out: Activity.
In data set [3] the test system is Aspergillus fumigatus. Nature of the data set: Antifungal activity against Aspergillus fumigatus CBS 144.89 by CLSI […] method. It is filed as functional.
The test system of data set [4] is Aspergillus fumigatus. Nature of the data set: Antifungal activity against DsRed-labeled Aspergillus fumigatus CBS 144.89 infected in immunocompromized C57BL/6 mouse assessed fungal hyphae degradation in lung at 4.5 mg/kg qd administered intratracheally for 4 days relative to untreated control. It is filed as functional, organism-based. Details: dose 4.5 mg/kg.

The subject of data set [5] is Mus musculus. Description: Toxicity in immunosuppressed C57BL/6 mouse assessed as mild multifocal interstitial plasmacytic infiltration at 4.5 mg/kg administered intratracheally on days 1, 4, 7 and 11 one day post infection. It is filed as organism-based. Further details: dose 4.5 mg/kg, route endotracheal. The conditions noted are these: in vivo, inhaled_or_intranasal.

Data set [6] relates to Aspergillus fumigatus. Nature of the data set: Antifungal activity against DsRed-labeled Aspergillus fumigatus CBS 144.89 infected in immunocompromized mouse assessed as decrease in residual fungal spore colocalized with macrophage and dendritic cell at 4.5 mg/kg qd administered intratracheally for 4 days relative to untreated control. Details: dose 4.5 mg/kg. The class given is functional, organism-based.

Data set [7] relates to Aspergillus fumigatus. Nature of the data set: Antifungal activity against Aspergillus fumigatus CBS 144.89 infected in immunosuppressed wild-type C57BL/6 mouse assessed as increase in survival rate at 4.5 mg/kg administered intratracheally on days 1, 4, 7 and 11 one day post infection measured after 21 days relative to untreated control. It is filed as functional, organism-based. Details: dose 4.5 mg/kg.

The test system of data set [8] is Aspergillus fumigatus. Description: Antifungal activity against Aspergillus fumigatus CBS 144.89 infected in immunosuppressed wild-type C57BL/6 mouse assessed as increase in survival rate at 4.5 mg/kg administered intratracheally for 4 days from the day of infection measured after 14 days relative to untreated control. It is filed as functional, organism-based. Details: dose 4.5 mg/kg.

In data set [9] the test system is Aspergillus fumigatus. Nature of the data set: Antifungal activity against DsRed-labeled Aspergillus fumigatus CBS 144.89 infected in transgenic C57BL/6 Cx3cr1 gfp/+mouse assessed as decrease in residual fungal spore colocalized with macrophage and dendritic cell at 4.5 mg/kg qd administered intratracheally for 4 days relative to untreated control. It is filed as functional, organism-based. Details: dose 4.5 mg/kg.

Data set [10] concerns Aspergillus fumigatus. Nature of the data set: Antifungal activity against Aspergillus fumigatus CBS 144.89 infected in immunosuppressed wild-type C57BL/6 mouse assessed as recovery from infection at 4.5 mg/kg administered intratracheally on days 1, 4, 7 and 11 one day post infection measured after 21 days relative to untreated control. To be noted: route endotracheal. The class given is functional.

In data set [11] the test system is Aspergillus fumigatus. Nature of the data set: Antifungal activity against DsRed-labeled Aspergillus fumigatus CBS 144.89 infected in transgenic C57BL/6 Cx3cr1 gfp/+ mouse assessed as macrophages phygocytosed-fungal conidia at 4.5 mg/kg qd administered intratracheally for 4 days relative to untreated control. It is filed as functional, organism-based. Details: dose 4.5 mg/kg.

Data set [12] deals with Aspergillus fumigatus. Description: Antifungal activity against DsRed-labeled Aspergillus fumigatus CBS 144.89 infected in immunocompromized mouse assessed as macrophages phygocytosed-fungal conidia at 4.5 mg/kg qd administered intratracheally for 4 days relative to untreated control. It is filed as functional, organism-based. Details: dose 4.5 mg/kg.
The test system of data set [13] is Aspergillus fumigatus. Description: Antifungal activity against Aspergillus fumigatus CBS 144.89 infected in immunosuppressed wild-type C57BL/6 mouse assessed as clearance of fungal forms in lung at 4.5 mg/kg administered intratracheally on days 1, 4, 7 and 11 one day post infection measured after 21 days relative to untreated control. The class given is functional, organism-based. Further details: dose 4.5 mg/kg.

In data set [14] the test system is Aspergillus fumigatus. Description: Antifungal activity against Aspergillus fumigatus CBS 144.89 infected in immunosuppressed wild-type C57BL/6 mouse assessed as increase in survival rate at 4.5 mg/kg administered intratracheally as single dose one day postinfection measured after 14 days relative to untreated control. It is filed as functional, organism-based. Further details: dose 4.5 mg/kg.

Data set [15] has as its system Mus musculus. Description: Toxicity in immunosuppressed C57BL/6 mouse assessed as mild multifocal interstitial plasmacytic infiltration at 1 mg/kg administered intratracheally on days 1, 4, 7 and 11 one day post infection. It is filed as organism-based. Details: dose 1 mg/kg, route endotracheal. To be noted: in vivo, inhaled_or_intranasal.
Data set [16] deals with Mus musculus. Description: Toxicity in immunosuppressed C57BL/6 mouse assessed as macrophage infiltration in the airways at 1 to 4.5 mg/kg administered intratracheally on days 1, 4, 7 and 11 one day post infection. It is filed as organism-based. Details: dose 1-4.5 mg/kg, route endotracheal. To be noted: in vivo, inhaled_or_intranasal.
For data set [17], the system named is Mus musculus. Description: Toxicity in immunosuppressed C57BL/6 mouse assessed as vasculitis at 1 to 4.5 mg/kg administered intratracheally on days 1, 4, 7 and 11 one day post infection. Further details: dose 1-4.5 mg/kg, route endotracheal. It is filed as organism-based. The conditions noted are these: in vivo, inhaled_or_intranasal.
The subject of data set [18] is Mus musculus. Nature of the data set: Toxicity in immunosuppressed C57BL/6 mouse assessed as edema at 1 to 4.5 mg/kg administered intratracheally on days 1, 4, 7 and 11 one day post infection. It is filed as organism-based. Further details: dose 1-4.5 mg/kg, route endotracheal. To be noted: in vivo, inhaled_or_intranasal.
The test system of data set [19] is Aspergillus fumigatus. Description: Antifungal activity against DsRed-labeled Aspergillus fumigatus CBS 144.89 infected in immunocompromized C57BL/6 mouse assessed fungal hyphae degradation in lung at 1 mg/kg qd administered intratracheally for 4 days relative to untreated control. It is filed as functional, organism-based. Further details: dose 1 mg/kg.
Data set [20] deals with Mus musculus. Description: Toxicity to immunosuppressed C57BL/6 mouse assessed as airway infiltration of neutrophils at 1 to 4.5 mg/kg administered intratracheally on days 1, 4, 7 and 11 one day post infection. The class given is organism-based. Further details: dose 1-4.5 mg/kg, route endotracheal. To be noted: in vivo, inhaled_or_intranasal.
Data set [21] deals with Aspergillus fumigatus. Nature of the data set: Antifungal activity against Aspergillus fumigatus CBS 144.89 infected in immunosuppressed wild-type C57BL/6 mouse assessed as increase in survival rate at 1 mg/kg administered intratracheally for 4 days from the day of infection measured after 14 days relative to untreated control. It is filed as functional, organism-based. Details: dose 1 mg/kg.

Data set [22] concerns Aspergillus fumigatus. Description: Antifungal activity against Aspergillus fumigatus CBS 144.89 infected in immunosuppressed wild-type C57BL/6 mouse assessed as increase in survival rate at 1 mg/kg administered intratracheally as single dose one day postinfection measured after 14 days relative to untreated control. It is filed as functional, organism-based. Details: dose 1 mg/kg.

Data set [23] relates to Mus musculus. Description: Toxicity in immunosuppressed C57BL/6 mouse assessed as blood vessel formation at 1 to 4.5 mg/kg administered intratracheally on days 1, 4, 7 and 11 one day post infection. The class given is organism-based. Details: dose 1-4.5 mg/kg, route endotracheal. To be noted: in vivo, inhaled_or_intranasal.
In data set [24] the test system is Mus musculus. Description: Toxicity in immunosuppressed C57BL/6 mouse assessed as hemorrhages at 1 to 4.5 mg/kg administered intratracheally on days 1, 4, 7 and 11 one day post infection. It is filed as organism-based. Further details: dose 1-4.5 mg/kg, route endotracheal. The conditions noted are these: in vivo, inhaled_or_intranasal.

One may read the MIC as the lowest concentration that inhibits growth of the organism. Low values mean greater potency, high ones weaker potency. For `CCCCCCCCCCCCCCCC(=O)N[C@@H](CCCCN)C(=O)N[C@@H](CC(C)C)C(=O)N[C@H](CC(C)C)C(=O)N[C@@H](CCCCN)C(=O)O`, the hemolysis at 20 µM in data set [1] was 9%. The hemolysis at 50 µM in data set [2] was determined as 45%. The molecule further returned an MIC against Aspergillus fumigatus [3] of 2 µg/mL (≈ 2.71 µM).
Taken in the same sequence, the figures for `CCCCCCCCCCCCCC(=O)N[C@@H](CCCCN)C(=O)N[C@@H](CC(C)C)C(=O)N[C@H](CC(C)C)C(=O)N[C@@H](CCCCN)C(=O)O` were 13%, 50% and 9 µg/mL (≈ 12.7 µM).
As to `CCCCCCCCCCCC(=O)N[C@@H](CC(=O)O)C(=O)N[C@@H](CC(C)C)C(=O)N[C@@H](CCCCN)C(=O)N[C@@H](CCCCN)C(=O)N[C@@H](CC(C)C)C(=O)N[C@@H](CC(C)C)C(=O)N[C@@H](CCCCN)C(=O)N[C@@H](CCCCN)C(=O)N[C@@H](CC(C)C)C(=O)N[C@@H](CC(C)C)C(=O)N[C@@H](CCCCN)C(=O)N[C@@H](CCCCN)C(=O)N[C@@H](CC(C)C)C(=O)O` (Lauroyl-DLKKLLKKLLKKL-OH), the hemolysis at 20 µM in [1] was 0%. Also, the hemolysis at 50 µM in data set [2] was 0%. The minimum inhibitory concentration (MIC) in the data set on Aspergillus fumigatus [3] is 20.8 µg/mL (≈ 11.8 µM). For the same molecule, the result in the data set on Aspergillus fumigatus [4] was Active.
For the molecule `CCCCCCCCCCCC(=O)N[C@@H](CCCCN)C(=O)N[C@@H](CC(C)C)C(=O)N[C@H](CC(C)C)C(=O)N[C@@H](CCCCN)C(=O)O` (Lauroyl-KL[dL]K-OH), in data set [1], the hemolysis at 20 µM amounted to 0%. Further, the hemolysis at 50 µM in data set [2] stood at 0%. For the same molecule, the MIC against Aspergillus fumigatus [3] was determined as 34 µg/mL (≈ 49.8 µM).
Consider `CCCCCCCCCCCCCCCC(=O)N[C@@H](CCCCN)C(=O)N[C@@H](C)C(=O)N[C@H](C)C(=O)N[C@@H](CCCCN)C(=O)O` (Palmitoyl-KA[dA]K-OH), for which the Activity result is “Toxic” in the data set on Mus musculus [5], 25% with Aspergillus fumigatus [10] and “Toxic” in the data set with Mus musculus [15]. The hemolysis at 20 µM in data set [1] was 0%. Besides, the hemolysis at 50 µM in [2] is 3%. Inhibition of growth against Aspergillus fumigatus [3] (MIC) required 8 µg/mL (≈ 12.2 µM). In addition, the result with Aspergillus fumigatus [6], in the data set on Aspergillus fumigatus [7], with Aspergillus fumigatus [8], with Aspergillus fumigatus [9], in the data set on Aspergillus fumigatus [11] and with Aspergillus fumigatus [12] was Active. Besides, the result in the data set on Aspergillus fumigatus [4], in the data set on Aspergillus fumigatus [13] and in the data set on Aspergillus fumigatus [14] was Active.
`CCCCCCCCCCCCCCCC(=O)N[C@@H](CCCCN)C(=O)N[C@@H](CCCCN)C(=O)N[C@H](CCCCN)C(=O)N[C@@H](CCCCN)C(=O)O` (Palmitoyl-KK[dK]K-OH): the hemolysis at 20 µM in data set [1] came to 0%. Moreover, the hemolysis at 50 µM in data set [2] is 6%. Also, the lowest concentration to inhibit growth in the data set with Aspergillus fumigatus [3] (MIC) was 38.4 µg/mL (≈ 49.9 µM).
For the molecule `C[C@@H]1[C@H](O)[C@@H](C)/C=C/C=C/C=C/C=C/C=C/C=C/C=C/[C@H](O[C@@H]2O[C@H](C)[C@@H](O)[C@H](N)[C@@H]2O)C[C@@H]2O[C@](O)(C[C@@H](O)C[C@@H](O)[C@H](O)CC[C@@H](O)C[C@@H](O)CC(=O)O[C@H]1C)C[C@H](O)[C@H]2C(=O)O` [AMPHOTERICIN B], the Activity entry in the data set on Mus musculus [16], with Mus musculus [17], in the data set on Mus musculus [18], in the data set with Mus musculus [20], with Mus musculus [23] and with Mus musculus [24] was “Toxic” throughout. Also, the MIC with Aspergillus fumigatus [3] turned out to be 11.5 µg/mL (≈ 12.4 µM). The outcome in the data set with Aspergillus fumigatus [19], with Aspergillus fumigatus [21] and in the data set with Aspergillus fumigatus [22] was inactive.
